Structures are written as SMILES. Where two headings read alike, the source gives them in different places.

Consider seven molecules from patent US20210275415A1, “AN ANTIMICROBIAL COMPOSITION” (Conopco, Inc., d/b/a UNILEVER, priority 2017, published 2021).

One test deals with Malassezia furfur. In words: ΣFIC assay against Malassezia furfur (MIC by alamar blue, checkerboard). Type of test: cell-based, M. furfur (CBS 1878). The note with it: M. furfur, Pityrosporum Broth, 32° C., lowest concentration giving complete growth inhibition (alamar blue stays blue), active alone; for MIC: Malassezia furfur, read-out: Minimum Inhibition Concentration (MIC). The procedure: Synergistic interaction between ZPTO and the AML compounds was determined using the ΣFIC assay against Malassezia furfur. A brief description of the method is given below.
Method: ΣFIC assay against Malassezia furfur
They are then incubated at 32° C. for 48 hours with shaking. Then, 1 ml of the first broth culture is transferred into 9 ml of fresh PB and incubated at 32° C. for 48 hours with shaking. The final culture should contain 2 to 6×10^6 cells/ml. This is achieved by diluting using PB to 5*10^5 cell/ml.
Binary combinations of ZPTO and the AML compound were prepared in 96-well plate by mixing 20 μl of zinc pyrithione solution with 20 μl of AML compound. The solution in each well were further mixed with 160 μl of PB and 20 μl of M. furfur. The final cell density in the testing plate is around 5*10^4 cell/ml, and the final concentration of actives in each well of the 96-well plate were shown below.
The plate was incubated at 32° C. for one day. Then 20 μl of alamar blue (0.01%) was added into each well with a further incubation for one day to observe the color change. Red color indicates microbial growth and the non-changing blue color indicates no growth.
(§1) The MIC is defined as the absolute lowest concentration of active that provides complete microbial growth inhibition as indicated by the blue color of alamar blue under the tested condition.
The differing behaviour of inhibitory antimicrobials in isolation and mixtures have been widely explored using the concept of the Fractional Concentration (FC) and Fractional Inhibitory Concentration (FIC). The parameter can be defined as follows: […]
(§2) These relationships can be expressed mathematically by summing the fractional MIC values for all the components present in the mixture to give the “fractional inhibition index”. There is no consistent approach in the academic or patent literature in defining precise limiting ΣFIC values that differentiate synergy from additivity or antagonism. In this study, we have adopted a liberal approach defining any binary mixture with ΣFIC<0.9 as showing evidence of synergistic behavior.
For orientation: The colour change of resazurin is a common sign of viable cells or microbes.

In the next test the test system is Staphylococcus aureus. Nature of the test: ΣFIC assay against Staphylococcus aureus (MIC by alamar blue, checkerboard). Type of test: cell-based, S. aureus (ATCC 12600). To be noted: for MIC: Staphylococcus aureus, 24 h, read-out: Minimum Inhibition Concentration (MIC); for interaction of the combination (synergy/additivity) in words: conclusion from Table 2. The method, then: Effect of sphingosine with triclosan as well as triclocarban was also tested. A brief description of the method is given below.
Methods: ΣFIC assay against Staphylococcus aureus
They are then incubated at 37° C. overnight (16 hours) with shaking. The overnight culture is diluted using TSB to 5*10^4 cell/ml.
Zinc pyrithione was serially diluted (2-fold) to prepare in a range of 0.5 to 500 ppm in the growth medium. The AML compound was serially diluted (2-fold) to prepare in a range of 16 to 1,000 ppm for sapienic acid, and palmitoleic acid; and 4 to 250 ppm for other AMLs in growth medium. Triclosan was serially diluted (2-fold) to prepare in a range of 0.2 to 200 ppm and triclocarban in a range of 2 to 2000 ppm in growth medium.
Binary combinations of ZPTO or triclosan/triclocarban and the AML compound were prepared in 96-well plate by mixing 20 μl of zinc pyrithione solution with 20 μl of AML compound. The solution in each well were further mixed with 160 μl of TSB and 20 μl of S. aureus. The final cell density in the testing plate is around 4*10^4 cell/ml, and the final concentration of actives in each well of the 96-well plate were shown below.
Then 20 μl of alamar blue (0.01%) was added into each well, and the plate was incubated at 37° C. for one day to observe the color change. Red color indicates microbial growth and the non-changing blue color indicates no growth.
as §1
The differing behaviors of inhibitory antimicrobials in isolation and mixtures have been widely explored using the concept of the Fractional Concentration (FC) and Fractional Inhibitory Concentration (FIC). The parameter can be defined as follows: […]
as §2

Where [1] appears, read: S. aureus, TSB, 37° C. one day, lowest concentration giving complete growth inhibition (alamar blue stays blue), active alone.

In the case of `CCCCCCCCCCCCCCC[C@@H](O)[C@@H](N)CO` [dihydrosphingosine], the entries for the “Minimum Inhibition Concentration (MIC)” value in the test on Malassezia furfur and with Staphylococcus aureus (setting [1]) were 1000 ppm and 6.3 ppm, respectively.
As for `CCCCCC/C=C\CCCCCCCC(=O)O` [palmitoleic acid], the MIC in the test on Malassezia furfur amounted to 5000 µg/mL.
Still for that read-out and setting: under `CCCCCCCCCCCCCC[C@@H](O)[C@@H](O)[C@@H](N)CO` [phytosphingosine] stands 125 µg/mL.
As for `CCCCCCCCC/C=C\CCCCC(=O)O` [sapienic acid], in the test with Staphylococcus aureus (setting [1]), the “Minimum Inhibition Concentration (MIC)” value is 25 ppm.
For the molecule `CCCCCCCCCCCCC/C=C/[C@@H](O)[C@@H](N)CO` [sphingosine], the MIC in the test with Malassezia furfur was 1000 µg/mL; in the test on Staphylococcus aureus (setting [1]), 3.1 µg/mL.
In the case of `O=C(Nc1ccc(Cl)cc1)Nc1ccc(Cl)c(Cl)c1` [triclocarban], the “interaction of the combination (synergy/additivity) in words” value in the test on Staphylococcus aureus (S. aureus) was “additive but not synergistic effect”. Besides, in the test with Staphylococcus aureus (setting [1]), the MIC was 3.13 µg/mL.
Consider `Oc1cc(Cl)ccc1Oc1ccc(Cl)cc1Cl` [triclosan], for which the “interaction of the combination (synergy/additivity) in words” value with Staphylococcus aureus (S. aureus) was “additive but not synergistic effect”. The MIC in the test on Staphylococcus aureus was determined as 0.16 µg/mL.
